For 15 molecules, T/C results are on record in PubChem BioAssay AID248 (DTP/NCI, 2004).

This assay relates to L1210 leukemia ip in BDF1 mice, survival T/C. In words: NCI In Vivo Anticancer Drug Screen. Data for tumor model L1210 Leukemia (intraperitoneal) in B6D2F1 (BDF1) mice. Conditions: higher = longer survival. The essentials: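 Mice bearing the transplanted tumor received compound or vehicle. Survival of the treated group was divided by that of the vehicle-treated control group to give the ratio.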

The mark [1] stands for this setting: endpoint: mean survival time, dose: 100.0 mg/kg/injection, schedule: Q01DX001 (ip), vehicle: saline.
Setting [2] is: endpoint: mean survival time, dose: 200.0 mg/kg/injection, schedule: Q01DX001 (ip), vehicle: saline.
[3] abbreviates: endpoint: mean survival time, dose: 400.0 mg/kg/injection, schedule: Q01DX001 (ip), vehicle: saline.
Where [4] appears, read: endpoint: mean survival time, dose: 100.0 mg/kg/injection, schedule: Q04DX002 (ip), vehicle: Klucel (hydroxypropylcellulose) (HPC).
The mark [5] stands for this setting: endpoint: mean survival time, dose: 200.0 mg/kg/injection, schedule: Q04DX002 (ip), vehicle: Klucel (hydroxypropylcellulose) (HPC).
[6] abbreviates: endpoint: mean survival time, dose: 400.0 mg/kg/injection, schedule: Q04DX002 (ip), vehicle: Klucel (hydroxypropylcellulose) (HPC).

Several values for one entry are separate records, joined by “and”; a condition that tells them apart may be missing. Identical values can stand only once. Toxic doses and inconclusive results are not listed.

For `CCCCCCCCCCCC[n+]1ccc(C)cc1C`, the T/C is, setting by setting: (endpoint: mean survival time, dose: 0.01 mg/kg/injection, schedule: Q01DX015 (ip), vehicle: saline) 92 % of control; (endpoint: mean survival time, dose: 0.02 mg/kg/injection, schedule: Q01DX015 (ip), vehicle: saline) 98 % of control; (endpoint: mean survival time, dose: 0.04 mg/kg/injection, schedule: Q01DX015 (ip), vehicle: saline) 97 % of control; (endpoint: mean survival time, dose: 0.08 mg/kg/injection, schedule: Q01DX015 (ip), vehicle: saline) 98 % of control; (endpoint: mean survival time, dose: 0.1 mg/kg/injection, schedule: Q01DX009 (ip), vehicle: saline) 97 % of control; (endpoint: mean survival time, dose: 0.1 mg/kg/injection, schedule: Q04DX003 (ip), vehicle: saline) 102 % of control. Moreover, the T/C (endpoint: mean survival time, dose: 0.2 mg/kg/injection, schedule: Q01DX009 (ip), vehicle: saline) was 92 % of control; the T/C (endpoint: mean survival time, dose: 0.2 mg/kg/injection, schedule: Q04DX003 (ip), vehicle: saline) is 97 % of control; the T/C (endpoint: mean survival time, dose: 0.4 mg/kg/injection, schedule: Q01DX009 (ip), vehicle: saline) was 101 % of control; the T/C (endpoint: mean survival time, dose: 0.4 mg/kg/injection, schedule: Q04DX003 (ip), vehicle: saline) was 94 % of control; the T/C (endpoint: mean survival time, dose: 0.59 mg/kg/injection, schedule: Q01DX009 (ip), vehicle: saline) is 91 % of control.
As for `COC(=O)[CH](C[N+](=O)[O-])[Hg][Cl]` (stereo not drawn), the T/C runs as follows: (endpoint: mean survival time, dose: 3.12 mg/kg/injection, schedule: Q01DX009 (ip), vehicle: saline) 94 % of control; (endpoint: mean survival time, dose: 6.25 mg/kg/injection, schedule: Q01DX009 (ip), vehicle: saline) 94 % of control.
On to `COc1ccccc1CN1CCCOP1(=O)Nc1ccccc1C` (stereo not drawn), for which the T/C runs as follows: (endpoint: mean survival time, dose: 50.0 mg/kg/injection, schedule: Q01DX001 (ip), vehicle: carboxymethylcellulose (CMC)) 109 % of control; (endpoint: mean survival time, dose: 100.0 mg/kg/injection, schedule: Q01DX001 (ip), vehicle: carboxymethylcellulose (CMC)) 93 % of control; (endpoint: mean survival time, dose: 200.0 mg/kg/injection, schedule: Q01DX001 (ip), vehicle: carboxymethylcellulose (CMC)) 96 % of control; (endpoint: mean survival time, dose: 400.0 mg/kg/injection, schedule: Q01DX001 (ip), vehicle: carboxymethylcellulose (CMC)) 91 % of control.
In the case of `COC(=O)/C=C(/Nc1cc(Cl)cc(Cl)c1)C(=O)OC`, the T/C reads like this: under setting [1], 95 % of control; (endpoint: mean survival time, dose: 100.0 mg/kg/injection, schedule: Q04DX003 (ip), vehicle: other) 86 % of control; under setting [2], 98 % of control; under setting [3], 90 % of control; (endpoint: mean survival time, dose: 400.0 mg/kg/injection, schedule: Q04DX003 (ip), vehicle: other) 104 % of control.
As for `COc1ccc(/C=C\C(=O)OCCCCOC(=O)/C=C/c2ccc(OC)cc2)cc1`, the T/C is, setting by setting: (endpoint: mean survival time, dose: 50.0 mg/kg/injection, schedule: Q01DX001 (ip), vehicle: saline) 95 % of control; under setting [1], 95 % of control; under setting [2], 95 % of control; under setting [3], 95 % of control.
For `COc1cccc2c1C(=O)c1c(O)c3c(c(O)c1C2=O)CC(O)(C(C)=O)CC3OC1CC(N)C(O)C(C)O1` (stereo not drawn), the T/C runs as follows: (endpoint: mean survival time, dose: 2.0 mg/kg/injection, schedule: Q01DX001 (ip), vehicle: saline) 121 % of control; (endpoint: mean survival time, dose: 8.0 mg/kg/injection, schedule: Q01DX009 (ip), vehicle: saline) 98 % of control; (endpoint: mean survival time, dose: 16.0 mg/kg/injection, schedule: Q01DX001 (ip), vehicle: saline) 121 % of control; (endpoint: mean survival time, dose: 32.0 mg/kg/injection, schedule: Q01DX001 (ip), vehicle: saline) 100 % of control; (endpoint: median survival time, dose: 6.0 mg/kg/injection, schedule: Q01DX005 (ip), vehicle: other) 117 % of control; (endpoint: median survival time, dose: 6.0 mg/kg/injection, schedule: Q04DX003 (ip), vehicle: water) 122 % of control. In addition, the T/C reads like this: (endpoint: median survival time, dose: 6.6 mg/kg/injection, schedule: Q01DX005 (ip), vehicle: water) 115 % of control; (endpoint: median survival time, dose: 10.0 mg/kg/injection, schedule: Q04DX003 (ip), vehicle: water) 115 % of control; (endpoint: median survival time, dose: 11.0 mg/kg/injection, schedule: Q01DX005 (ip), vehicle: other) 117 % of control; (endpoint: median survival time, dose: 11.0 mg/kg/injection, schedule: Q01DX005 (ip), vehicle: water) 121 % of control; (endpoint: median survival time, dose: 16.0 mg/kg/injection, schedule: Q01DX005 (ip), vehicle: other) 117 % of control; (endpoint: median survival time, dose: 17.0 mg/kg/injection, schedule: Q04DX003 (ip), vehicle: water) 155 % of control. Moreover, the T/C is 122 % of control (endpoint: median survival time, dose: 21.0 mg/kg/injection, schedule: Q01DX005 (ip), vehicle: other); 121 % of control (endpoint: median survival time, dose: 31.0 mg/kg/injection, schedule: Q01DX005 (ip), vehicle: other); 115 % of control (endpoint: median survival time, dose: 48.0 mg/kg/injection, schedule: Q04DX003 (ip), vehicle: water); 157 % of control (endpoint: median survival time, dose: 80.0 mg/kg/injection, schedule: Q04DX003 (ip), vehicle: water); 100 % of control (endpoint: median survival time, dose: 83.0 mg/kg/injection, schedule: Q01DX005 (ip), vehicle: water); 115 % of control (endpoint: median survival time, dose: 133.0 mg/kg/injection, schedule: Q04DX003 (ip), vehicle: water). For the same molecule, the T/C (endpoint: median survival time, dose: 222.0 mg/kg/injection, schedule: Q04DX003 (ip), vehicle: water) is 89 % of control.
Turning to `NC(=O)OCCCl`, the T/C by setting is: (endpoint: mean survival time, dose: 100.0 mg/kg/injection, schedule: Q04DX002 (ip), vehicle: saline) 98 % of control; (endpoint: mean survival time, dose: 200.0 mg/kg/injection, schedule: Q04DX002 (ip), vehicle: saline) 109 % of control; (endpoint: mean survival time, dose: 400.0 mg/kg/injection, schedule: Q04DX002 (ip), vehicle: saline) 102 % of control.
As to `CSc1ccc(NC(=O)c2ccc([N+](=O)[O-])cc2)cc1`, the T/C is 95 % of control under setting [4], 95 % of control under setting [5] and 92 % of control under setting [6].
Consider `CC(C)Cc1ccccc1`, for which the T/C by setting is: (endpoint: mean survival time, dose: 100.0 mg/kg/injection, schedule: Q01DX009 (ip), vehicle: Klucel (hydroxypropylcellulose) (HPC)) 106 % of control; (endpoint: mean survival time, dose: 100.0 mg/kg/injection, schedule: Q04DX003 (ip), vehicle: Klucel (hydroxypropylcellulose) (HPC)) 110 % of control; (endpoint: mean survival time, dose: 200.0 mg/kg/injection, schedule: Q01DX009 (ip), vehicle: Klucel (hydroxypropylcellulose) (HPC)) 100 % of control; (endpoint: mean survival time, dose: 200.0 mg/kg/injection, schedule: Q04DX003 (ip), vehicle: Klucel (hydroxypropylcellulose) (HPC)) 96 % of control; (endpoint: mean survival time, dose: 400.0 mg/kg/injection, schedule: Q01DX009 (ip), vehicle: Klucel (hydroxypropylcellulose) (HPC)) 122 % of control; (endpoint: mean survival time, dose: 400.0 mg/kg/injection, schedule: Q04DX003 (ip), vehicle: Klucel (hydroxypropylcellulose) (HPC)) 96 % of control.
In the case of `COC(=O)C(CSC(c1ccc(N(C)C)cc1)c1ccc(N(C)C)cc1)NC(=O)OCc1ccccc1` (stereo not drawn), the T/C by setting is: (endpoint: mean survival time, dose: 75.0 mg/kg/injection, schedule: Q01DX001 (ip), vehicle: carboxymethylcellulose (CMC)) 97 % of control; (endpoint: mean survival time, dose: 300.0 mg/kg/injection, schedule: Q01DX001 (ip), vehicle: carboxymethylcellulose (CMC)) 94 % of control.
Regarding `COC1=C(CNc2ncnc3nc[nH]c23)CC=CC1`, the T/C is 95 % of control (endpoint: mean survival time, dose: 100.0 mg/kg/injection, schedule: Q01DX009 (ip), vehicle: saline); 97 % of control (endpoint: mean survival time, dose: 200.0 mg/kg/injection, schedule: Q01DX009 (ip), vehicle: saline); 100 % of control (endpoint: mean survival time, dose: 400.0 mg/kg/injection, schedule: Q01DX009 (ip), vehicle: saline).
With `C=CCCCCCCCCC(=O)NC[n+]1cccc(O)c1`, where the note is “endpoint: mean survival time, dose: 100.0 mg/kg/injection, schedule: Q04DX003 (ip), vehicle: saline with Tween-80”, the T/C is 87 % of control.
On to `CCN(CC)c1cc[c]([Hg][O]C(C)=O)cc1`, for which the T/C is 92 % of control (endpoint: mean survival time, dose: 1.56 mg/kg/injection, schedule: Q04DX003 (ip), vehicle: saline with Tween-80); 90 % of control (endpoint: mean survival time, dose: 3.13 mg/kg/injection, schedule: Q04DX003 (ip), vehicle: saline with Tween-80); 93 % of control and 94 % of control (endpoint: mean survival time, dose: 6.25 mg/kg/injection, schedule: Q04DX003 (ip), vehicle: saline with Tween-80); 93 % of control (endpoint: mean survival time, dose: 12.5 mg/kg/injection, schedule: Q04DX003 (ip), vehicle: saline with Tween-80).
For the molecule `COC(=O)N/N=C/c1ccccc1OC`, the T/C reads like this: under setting [4], 104 % of control; under setting [5], 104 % of control; under setting [6], 93 % of control.
Turning to `Cc1nc2c(-c3ccccc3)cc(Cl)cc2s1`, the T/C by setting is: (endpoint: mean survival time, dose: 100.0 mg/kg/injection, schedule: Q04DX003 (ip), vehicle: saline) 100 % of control; (endpoint: mean survival time, dose: 200.0 mg/kg/injection, schedule: Q04DX003 (ip), vehicle: saline) 101 % of control; (endpoint: mean survival time, dose: 400.0 mg/kg/injection, schedule: Q04DX003 (ip), vehicle: saline) 95 % of control.
